Test results taken from US20080138835A1 (priority 2004, published 2008).
Values after ≈ are worked out from the molar mass of the structure shown.

Test system: S. aureus RN4220
Experiment: microbe, parasite or virus in culture
Assay type: cell-based
Conditions: for MIC: Staphylococcus aureus
[1] = RN4220, pYH4 vector control, +aTc inducer
[2] = RN4220, pYH4 vector control, −aTc inducer

SMILES: CO[C@@H]1[C@@H](OC(N)=O)[C@@H](O)[C@H](Oc2ccc3c(O)c(NC(=O)c4ccc(O)c(CC=C(C)C)c4)c(=O)oc3c2C)OC1(C)C [Novobiocin]
- MIC change upon MRS overexpression: remained unchanged
- MIC (RN4220, pYH4-MRS, +aTc inducer): 0.25 µg/mL (≈ 0.408 µM)
- MIC (RN4220, pYH4-MRS, −aTc inducer): 0.25 µg/mL (≈ 0.408 µM)
- MIC [1]: 0.25 µg/mL (≈ 0.408 µM)
- MIC [2]: 0.25 µg/mL (≈ 0.408 µM)

SMILES: CN[C@H](CC(C)C)C(=O)N[C@H]1C(=O)N[C@@H](CC(N)=O)C(=O)N[C@H]2C(=O)N[C@H]3C(=O)N[C@H](C(=O)N[C@H](C(=O)O)c4cc(O)cc(O)c4-c4cc3ccc4O)[C@H](O)c3ccc(c(Cl)c3)Oc3cc2cc(c3O[C@@H]2O[C@H](CO)[C@@H](O)[C@H](O)[C@H]2O[C@H]2C[C@](C)(N)[C@H](O)[C@H](C)O2)Oc2ccc(cc2Cl)[C@H]1O [Vancomycin]
- MIC change upon MRS overexpression: remained unchanged
- MIC (RN4220, pYH4-MRS, +aTc inducer): 0.5 µg/mL (≈ 0.345 µM)
- MIC (RN4220, pYH4-MRS, −aTc inducer): 0.5 µg/mL (≈ 0.345 µM)
- MIC [1]: 1 µg/mL (≈ 0.69 µM)
- MIC [2]: 1 µg/mL (≈ 0.69 µM)
